Laboratory results published in publication PMC3555856, “In vitro α-glucosidase inhibitory activity of phenolic constituents from aerial parts of Polygonum hyrcanicum” (DARU Journal of Pharmaceutical Sciences, 2012).
Where two headings read alike, the source gives them in different places.

What was measured:
[1] = DPPH free radical scavenging activity; conditions: absorbance at 517 nm after 30 minutes
Procedure: The antioxidant activities of the extracts were determined with the DPPH assay according to an established protocol. Extract solutions of 500, 250, 100, and 50 μg/ml were prepared in methanol. Each test tube contained 1 ml of the samples and 2 ml freshly prepared DPPH solution of 40 μg/ml in methanol. […] Absorbance of the mixtures were recorded at 517 nm after 30 minutes, against the blank covets of DPPH solution. Vitamin E was used as a positive control. All samples were assayed in triplicate and IC50 values were calculated.

[2] = FRAP assay (ferric-reducing ability); conditions: 37°C, 10 minutes, 593 nm
Procedure: Antioxidant activities of plant extracts were evaluated by monitoring their ferric-reducing abilities. Freshly prepared FRAP reagent contained 5 ml FeCl3 (20 mM) plus 5 ml of a 10 mM TPTZ solution in 40 mM HCl and 50 ml of 300 mM acetate buffer (pH = 3.6). One hundred microliters of the samples, dissolved in methanol at various concentrations, were mixed with 3 ml FRAP reagent and incubated at 37°C for 10 minutes; the absorptions at 593 nm were recorded. A calibration curve was generated in the range of 125–750 μM ferrous sulfate (FeSO4.7H2O). Vitamin E was used as a positive control and the results were expressed as mmol ferrous ion equivalent per gram of extracts.

[3] = biological target: T1, α-glucosidase (EC 3.2.1.20, from baker's yeast) (Saccharomyces cerevisiae, UniProt P53341); assay: biochemical; conditions: pH 6.9, 37°C
T1 construct: purchased Sigma-Aldrich Chemie (Germany)
T1 sequence (P53341 whole entry): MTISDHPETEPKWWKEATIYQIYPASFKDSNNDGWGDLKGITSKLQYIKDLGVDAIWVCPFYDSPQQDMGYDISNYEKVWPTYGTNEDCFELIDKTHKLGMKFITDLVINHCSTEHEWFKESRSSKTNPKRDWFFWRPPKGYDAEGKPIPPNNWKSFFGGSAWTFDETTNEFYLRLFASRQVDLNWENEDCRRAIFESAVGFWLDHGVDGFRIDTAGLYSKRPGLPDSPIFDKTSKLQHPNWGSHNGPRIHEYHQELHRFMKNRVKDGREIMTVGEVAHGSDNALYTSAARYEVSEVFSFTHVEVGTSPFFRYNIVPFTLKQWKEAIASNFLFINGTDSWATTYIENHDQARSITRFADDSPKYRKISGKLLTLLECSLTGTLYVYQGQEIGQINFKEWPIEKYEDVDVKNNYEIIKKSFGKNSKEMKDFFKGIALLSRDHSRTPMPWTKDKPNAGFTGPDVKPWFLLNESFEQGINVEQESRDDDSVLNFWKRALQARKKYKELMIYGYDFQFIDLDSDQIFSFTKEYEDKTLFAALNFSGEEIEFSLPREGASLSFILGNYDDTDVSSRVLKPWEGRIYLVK
Procedure: Column chromatography was carried out using silica gel (230–400 mesh) obtained from Merck (Germany), RP-18 (230–400 mesh) and Sephadex LH-20 procured from Fluka (Switzerland). Pre-coated silica gel 60 F254 plates and silica gel 60 RP-18 F254S plates (Merck, Germany) were used for TLC. Spots were observed under UV at 254 and 366 nm and spraying with anisaldehyde-H2SO4 reagent (Sigma-Aldrich Chemie, Germany) and heating at 120°C for 5 min. HPLC separations were performed on a Knauer Wellchrom system connected to a photodiode array detector (Smart line system, Germany). ^1H and ^13C NMR spectra were measured on a Bruker Avance DRX 500 spectrometer operating at 500 MHz for ^1H and 125 MHz for ^13C using a 5 mm PABBO probehead. α-glucosidase (EC 3.2.1.20, from baker’s yeast, 77 U/mg), p-nitrophenyl-α-d-glucopyranoside, vitamin E 97% and 2, 2-diphenyl-picrylhydrazyl (DPPH) were obtained from Sigma-Aldrich Chemie (Germany). Sodium carbonate, FeCl3, sodium acetate, ferrous sulfate [FeSO4.7H2O], gallic acid, 2, 4, 6-tripyridyl-s-triazine (TPTZ) solution, and Folin-Ciocalteu reagent were all obtained from Merck (Germany).
α-Glucosidase inhibitory activities were evaluated according to the chromogenic method described by McCue et al. (2005), with some modifications. The enzyme solution contained 20 μl α-glucosidase (0.5 unit/ml) and 120 μl 0.1 M phosphate buffer (pH 6.9). p-Nitrophenyl-α-D-glucopyranoside (5 mM) in the same buffer (pH 6.9) was used as a substrate solution. Ten microliters of test samples, dissolved in DMSO at various concentrations, were mixed with enzyme solution in microplate wells and incubated for 15 min at 37°C. Twenty microliters of substrate solution were added and incubated for an additional 15 min. The reaction was terminated by adding 80 μl of 0.2 M sodium carbonate solution. Absorbance of the wells was measured with a microplate reader at 405 nm, while the reaction system without plant extracts was used as control. […] Each experiment was conducted in triplicate. The enzyme inhibitory rates of samples were calculated as follows:
Inhibition%=[(control absorption-sample absorption)/control absorption)]×100.
The IC50 values of samples were calculated and reported as the mean ± standard deviation (SD) of three experiments.

[4] = mean ± SD of three experiments, read-out: α-Glucosidase inhibitory activity IC50
[5] = α-Glucosidase inhibitory activity IC50, mean ± SD of three experiments

| IC50 [3, 4] | Compound | further results |
| --- | --- | --- |
| 5.8 ± 2.8 µM | CC(=O)OC[C@@H]1O[C@@H](Oc2c(-c3cc(O)c(O)c(O)c3)oc3cc(O)cc(O)c3c2=O)[C@H](O)[C@H]1OC(C)=O [Compound 6, myricetin 3-O-α-L-(3",5"-diacetyl-arabinofuranoside)] |  |
| 6.6 ± 3.5 µM | Oc1cc(O)c2c(c1)OC(c1ccc(O)c(O)c1)C(O)C2 (single isomer, unassigned; (+)) [Compound 7, (+) catechin] |  |
| 4.2 ± 2.9 µM | O=c1c(O[C@@H]2O[C@@H](CO)[C@H](O)[C@H]2O)c(-c2cc(O)c(O)c(O)c2)oc2cc(O)cc(O)c12 [Compound 12, myricetin 3-O-α-L-arabinofuranoside] |  |
| 4.8 ± 0.8 µM | O=c1c(OC2OC(CO)C(O)C(O)C2O)c(-c2cc(O)c(O)c(O)c2)oc2cc(O)cc(O)c12 [Compound 9, myricetin 3-O-β-D-galactopyranoside] |  |

The next lines start with the compound.

| Compound | IC50 [3, 4] | further results |
| --- | --- | --- |
| vitamin E |  | DPPH assay IC50 [1]: 14.12 ± 0.9 µg/mL; DPPH assay IC50 ([1]; listed as vitamin E): 14.1 µg/mL; FRAP assay [2]: 2.40 ± 0.76 mmol ferrous ion equivalent/g; FRAP assay ([2]; listed as vitamin E): 2.4 mmol ferrous ion equivalent/g |
| CC(=O)OC1C(CO)OC(Oc2c(-c3ccc(O)c(O)c3)oc3cc(O)cc(O)c3c2=O)C1O [Compound 5, quercetin 3-O-α-L-(3"-acetyl-arabinofuranoside)] | 4.8 ± 1.9 µM |  |
| O=C(/C=C/c1ccc(O)c(O)c1)NCCc1ccc(O)cc1 [Compound 3, N-trans-caffeoyl-tyramine] | 0.3 ± 0.3 µM |  |
| Oc1cc(O)c2c(c1)OC(c1cc(O)c(O)c(O)c1)C(O)C2 (single isomer, unassigned; (-)) [Compound 8, (-) gallocatechin] |  | IC50 [3, 5]: 1 ± 0.3 µM |
| CC(=O)OC[C@@H]1O[C@@H](Oc2c(-c3ccc(O)c(O)c3)oc3cc(O)cc(O)c3c2=O)[C@H](O)[C@H]1OC(C)=O [Compound 4, quercetin 3-O-α-L-(3",5"-diacetyl-arabinofuranoside)] | 4.9 ± 1.5 µM |  |
| O=c1c(O)c(-c2cc(O)c(O)c(O)c2)oc2cc(O)cc(O)c12 [Compound 2, myricetin] |  | IC50 [3, 5]: 1.3 ± 0.6 µM |
| O=c1c(O[C@@H]2O[C@@H](CO)[C@H](O)[C@H]2O)c(-c2ccc(O)c(O)c2)oc2cc(O)cc(O)c12 [Compound 13, quercetin 3-O-α-L-arabinofuranoside] |  | IC50 [3, 5]: 7.6 ± 0.9 µM |
